Measurements published in ChEMBL document CHEMBL5465560, “Selectivity Literature for EUbOPEN Chemogenomic Library” (2024).

Legend:
[1] = biological target: T1, cAMP-dependent protein kinase catalytic subunit PRKX (Homo sapiens) (UniProt P51817); experiment: Selectivity interaction (Kinase panel (Z-LYTE Assay)) EUB0001632a PRKX; details: at 10 µM
T1 sequence (whole entry): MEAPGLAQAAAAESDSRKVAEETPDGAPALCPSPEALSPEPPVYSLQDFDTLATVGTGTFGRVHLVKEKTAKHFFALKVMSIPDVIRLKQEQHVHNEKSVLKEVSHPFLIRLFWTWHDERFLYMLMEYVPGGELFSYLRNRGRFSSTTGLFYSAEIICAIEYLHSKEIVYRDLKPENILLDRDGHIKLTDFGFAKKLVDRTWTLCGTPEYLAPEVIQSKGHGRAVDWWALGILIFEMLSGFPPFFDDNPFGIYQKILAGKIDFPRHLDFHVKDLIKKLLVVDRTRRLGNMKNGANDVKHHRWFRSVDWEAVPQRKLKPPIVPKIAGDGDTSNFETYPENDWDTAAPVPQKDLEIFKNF

[2] = biological target: Interferon-induced, double-stranded RNA-activated protein kinase (Homo sapiens) (UniProt P19525); experiment: Selectivity interaction (LanthaScreen Eu Kinase Binding Assay) EUB0001632a EIF2AK2; details: at 10 µM
[3] = biological target: Proto-oncogene tyrosine-protein kinase Src (Homo sapiens, UniProt P12931); experiment: Selectivity interaction (KinomeScan (DiscoverX)) EUB0000695a SRC; details: at 100 nM
[4] = biological target: T1, cAMP-dependent protein kinase catalytic subunit PRKX (Homo sapiens); experiment: Selectivity interaction (KinomeScan (DiscoverX)) EUB0000229b PRKX; details: at 10 µM
[5] = biological target: T2, Ephrin type-B receptor 6 (Homo sapiens) (UniProt O15197); experiment: Selectivity interaction (KinomeScan (DiscoverX)) EUB0000045b EPHB6
T2 sequence (whole entry): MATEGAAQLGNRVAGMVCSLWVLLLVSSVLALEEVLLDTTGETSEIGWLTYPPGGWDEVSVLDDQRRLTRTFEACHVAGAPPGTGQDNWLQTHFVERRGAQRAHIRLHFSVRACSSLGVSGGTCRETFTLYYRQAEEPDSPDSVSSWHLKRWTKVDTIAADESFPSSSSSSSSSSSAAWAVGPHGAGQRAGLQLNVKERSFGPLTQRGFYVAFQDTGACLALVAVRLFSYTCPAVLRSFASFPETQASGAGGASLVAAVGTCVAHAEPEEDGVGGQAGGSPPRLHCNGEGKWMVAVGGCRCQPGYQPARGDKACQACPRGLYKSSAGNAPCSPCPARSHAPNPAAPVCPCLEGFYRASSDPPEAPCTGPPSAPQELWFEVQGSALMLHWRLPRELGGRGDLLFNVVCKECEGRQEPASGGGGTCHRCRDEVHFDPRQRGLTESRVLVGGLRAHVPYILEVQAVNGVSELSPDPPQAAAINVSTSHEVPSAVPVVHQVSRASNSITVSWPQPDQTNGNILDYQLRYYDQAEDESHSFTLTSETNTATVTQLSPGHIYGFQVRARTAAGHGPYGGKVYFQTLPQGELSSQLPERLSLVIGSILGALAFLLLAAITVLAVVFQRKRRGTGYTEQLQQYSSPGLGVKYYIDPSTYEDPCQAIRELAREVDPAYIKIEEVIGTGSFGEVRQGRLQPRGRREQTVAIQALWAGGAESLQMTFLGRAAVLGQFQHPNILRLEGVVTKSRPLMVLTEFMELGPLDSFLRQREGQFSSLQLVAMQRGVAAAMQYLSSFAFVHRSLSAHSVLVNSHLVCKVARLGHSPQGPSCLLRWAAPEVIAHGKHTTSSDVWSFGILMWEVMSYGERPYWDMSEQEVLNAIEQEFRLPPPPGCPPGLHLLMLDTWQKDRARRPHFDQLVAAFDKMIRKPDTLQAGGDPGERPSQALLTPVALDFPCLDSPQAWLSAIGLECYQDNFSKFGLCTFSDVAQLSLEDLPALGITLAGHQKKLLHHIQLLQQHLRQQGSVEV

[6] = test system: Epidermal growth factor receptor (Homo sapiens), P00533 [UNDEFINED MUTATION]; experiment: Selectivity interaction (KinomeScan (DiscoverX)) EUB0000655a EGFR; details: at 10 µM
[7] = biological target: Receptor tyrosine-protein kinase erbB-3 (Homo sapiens) (UniProt P21860); experiment: Selectivity interaction (KinomeScan (DiscoverX)) EUB0000618a ERBB3; details: at 10 µM
[8] = biological target: T3, Tyrosine-protein kinase receptor TYRO3 (Homo sapiens) (UniProt Q06418); experiment: Selectivity interaction (KinomeScan (DiscoverX)) EUB0000607a TYRO3; details: at 10 µM
T3 sequence (whole entry): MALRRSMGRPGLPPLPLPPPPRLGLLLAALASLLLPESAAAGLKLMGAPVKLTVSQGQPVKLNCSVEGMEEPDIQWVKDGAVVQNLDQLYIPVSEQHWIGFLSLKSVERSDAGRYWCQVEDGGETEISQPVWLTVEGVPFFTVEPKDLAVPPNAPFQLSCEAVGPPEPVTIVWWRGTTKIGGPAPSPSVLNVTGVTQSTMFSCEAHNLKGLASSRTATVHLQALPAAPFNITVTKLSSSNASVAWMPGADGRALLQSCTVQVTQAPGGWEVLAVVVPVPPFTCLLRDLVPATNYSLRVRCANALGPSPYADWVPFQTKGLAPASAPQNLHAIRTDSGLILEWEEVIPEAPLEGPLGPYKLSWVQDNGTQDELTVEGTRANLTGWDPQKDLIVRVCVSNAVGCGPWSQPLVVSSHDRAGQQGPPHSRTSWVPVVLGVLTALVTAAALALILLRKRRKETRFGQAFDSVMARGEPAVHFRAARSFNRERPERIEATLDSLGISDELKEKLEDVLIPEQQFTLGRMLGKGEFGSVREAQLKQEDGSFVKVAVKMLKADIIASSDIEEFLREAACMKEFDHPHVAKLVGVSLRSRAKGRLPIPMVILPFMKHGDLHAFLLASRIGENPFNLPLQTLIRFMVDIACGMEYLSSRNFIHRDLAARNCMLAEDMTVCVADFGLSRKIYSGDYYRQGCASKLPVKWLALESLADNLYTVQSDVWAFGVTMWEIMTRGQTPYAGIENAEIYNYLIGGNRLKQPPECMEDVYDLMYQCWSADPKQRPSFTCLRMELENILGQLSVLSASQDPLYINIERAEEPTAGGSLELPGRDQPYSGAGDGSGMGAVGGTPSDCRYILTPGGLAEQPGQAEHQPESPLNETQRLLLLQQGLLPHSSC

Epidermal growth factor receptor (Homo sapiens), P00533 [UNDEFINED MUTATION], sequence (P00533 whole entry, looked up, change not shown): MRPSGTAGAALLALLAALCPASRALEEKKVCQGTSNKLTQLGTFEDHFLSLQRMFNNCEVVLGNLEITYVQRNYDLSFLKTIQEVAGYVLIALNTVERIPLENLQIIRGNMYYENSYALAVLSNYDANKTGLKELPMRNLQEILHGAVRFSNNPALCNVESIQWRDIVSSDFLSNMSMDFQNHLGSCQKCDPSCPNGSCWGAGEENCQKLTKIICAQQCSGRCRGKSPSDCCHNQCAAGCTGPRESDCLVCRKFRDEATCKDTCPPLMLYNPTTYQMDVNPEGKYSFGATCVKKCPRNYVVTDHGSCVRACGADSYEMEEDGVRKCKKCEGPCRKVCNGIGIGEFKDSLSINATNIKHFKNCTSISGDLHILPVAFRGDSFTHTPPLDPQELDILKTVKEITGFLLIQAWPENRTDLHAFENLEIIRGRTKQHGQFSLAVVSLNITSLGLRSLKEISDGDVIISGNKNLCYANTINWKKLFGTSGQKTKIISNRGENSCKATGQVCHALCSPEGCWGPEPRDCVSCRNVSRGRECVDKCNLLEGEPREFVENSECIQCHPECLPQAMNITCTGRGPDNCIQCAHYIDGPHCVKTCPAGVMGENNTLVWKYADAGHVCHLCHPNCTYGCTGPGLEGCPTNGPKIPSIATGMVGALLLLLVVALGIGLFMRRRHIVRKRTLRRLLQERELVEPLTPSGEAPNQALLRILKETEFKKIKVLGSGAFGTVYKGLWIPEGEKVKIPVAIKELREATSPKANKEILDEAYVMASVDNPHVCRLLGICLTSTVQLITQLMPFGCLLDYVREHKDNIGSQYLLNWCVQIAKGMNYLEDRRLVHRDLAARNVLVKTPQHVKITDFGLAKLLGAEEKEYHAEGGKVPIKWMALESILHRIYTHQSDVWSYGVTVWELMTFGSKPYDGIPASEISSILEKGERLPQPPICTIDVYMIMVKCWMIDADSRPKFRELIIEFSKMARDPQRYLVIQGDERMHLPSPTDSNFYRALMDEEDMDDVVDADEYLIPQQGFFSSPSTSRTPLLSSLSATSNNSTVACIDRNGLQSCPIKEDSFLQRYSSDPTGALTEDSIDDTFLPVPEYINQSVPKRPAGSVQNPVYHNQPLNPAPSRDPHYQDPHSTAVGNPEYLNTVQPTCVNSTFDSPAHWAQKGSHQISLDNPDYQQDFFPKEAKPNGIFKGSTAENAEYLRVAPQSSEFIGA
Receptor tyrosine-protein kinase erbB-3 (Homo sapiens), sequence (P21860 whole entry): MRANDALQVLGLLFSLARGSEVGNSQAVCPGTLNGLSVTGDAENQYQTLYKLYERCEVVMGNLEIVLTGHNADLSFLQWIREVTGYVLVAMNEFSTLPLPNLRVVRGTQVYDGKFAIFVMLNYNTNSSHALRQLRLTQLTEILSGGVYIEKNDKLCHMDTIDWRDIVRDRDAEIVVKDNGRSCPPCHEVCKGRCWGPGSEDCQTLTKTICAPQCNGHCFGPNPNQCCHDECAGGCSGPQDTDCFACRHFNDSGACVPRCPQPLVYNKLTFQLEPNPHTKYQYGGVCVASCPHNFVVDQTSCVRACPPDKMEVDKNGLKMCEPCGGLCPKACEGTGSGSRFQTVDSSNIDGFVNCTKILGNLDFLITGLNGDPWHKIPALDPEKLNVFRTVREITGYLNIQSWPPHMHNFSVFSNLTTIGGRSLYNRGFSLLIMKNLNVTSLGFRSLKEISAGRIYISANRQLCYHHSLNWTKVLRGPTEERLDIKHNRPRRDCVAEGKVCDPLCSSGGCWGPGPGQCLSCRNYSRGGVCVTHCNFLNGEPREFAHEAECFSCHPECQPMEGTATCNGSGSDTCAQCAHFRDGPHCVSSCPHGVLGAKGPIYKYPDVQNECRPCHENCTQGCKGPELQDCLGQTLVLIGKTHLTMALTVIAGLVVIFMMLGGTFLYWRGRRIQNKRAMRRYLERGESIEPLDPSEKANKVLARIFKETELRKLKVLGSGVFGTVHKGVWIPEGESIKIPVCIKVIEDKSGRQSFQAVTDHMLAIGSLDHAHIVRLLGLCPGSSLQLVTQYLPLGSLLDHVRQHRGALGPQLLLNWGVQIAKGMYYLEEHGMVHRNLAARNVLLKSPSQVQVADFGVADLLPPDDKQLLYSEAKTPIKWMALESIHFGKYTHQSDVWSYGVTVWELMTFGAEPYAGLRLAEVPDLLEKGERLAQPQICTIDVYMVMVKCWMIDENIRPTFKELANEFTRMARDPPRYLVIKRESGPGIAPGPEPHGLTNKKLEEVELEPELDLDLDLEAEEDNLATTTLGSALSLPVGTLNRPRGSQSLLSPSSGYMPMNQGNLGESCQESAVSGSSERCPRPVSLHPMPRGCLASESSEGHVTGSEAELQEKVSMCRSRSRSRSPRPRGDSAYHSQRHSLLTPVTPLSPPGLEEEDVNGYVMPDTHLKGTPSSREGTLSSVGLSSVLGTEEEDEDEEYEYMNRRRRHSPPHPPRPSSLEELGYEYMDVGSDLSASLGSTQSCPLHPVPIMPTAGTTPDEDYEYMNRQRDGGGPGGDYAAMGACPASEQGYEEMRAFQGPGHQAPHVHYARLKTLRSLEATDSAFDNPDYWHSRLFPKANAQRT
Proto-oncogene tyrosine-protein kinase Src, sequence (P12931 2-536 limits assumed): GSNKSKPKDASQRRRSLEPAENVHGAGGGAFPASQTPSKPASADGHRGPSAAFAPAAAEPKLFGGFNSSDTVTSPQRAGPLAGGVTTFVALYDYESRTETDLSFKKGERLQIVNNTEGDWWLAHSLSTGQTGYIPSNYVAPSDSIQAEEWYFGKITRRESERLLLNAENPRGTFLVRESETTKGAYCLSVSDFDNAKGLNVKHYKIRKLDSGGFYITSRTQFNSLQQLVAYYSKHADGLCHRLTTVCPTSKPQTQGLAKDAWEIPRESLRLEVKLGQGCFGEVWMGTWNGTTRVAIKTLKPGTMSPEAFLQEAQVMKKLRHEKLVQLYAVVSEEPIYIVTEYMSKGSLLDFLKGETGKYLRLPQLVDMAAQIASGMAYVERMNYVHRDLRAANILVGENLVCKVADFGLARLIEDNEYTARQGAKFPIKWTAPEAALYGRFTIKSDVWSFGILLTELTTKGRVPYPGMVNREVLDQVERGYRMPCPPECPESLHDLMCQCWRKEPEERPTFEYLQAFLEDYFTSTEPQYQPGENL
Interferon-induced, double-stranded RNA-activated protein kinase (Homo sapiens), sequence (P19525 whole entry): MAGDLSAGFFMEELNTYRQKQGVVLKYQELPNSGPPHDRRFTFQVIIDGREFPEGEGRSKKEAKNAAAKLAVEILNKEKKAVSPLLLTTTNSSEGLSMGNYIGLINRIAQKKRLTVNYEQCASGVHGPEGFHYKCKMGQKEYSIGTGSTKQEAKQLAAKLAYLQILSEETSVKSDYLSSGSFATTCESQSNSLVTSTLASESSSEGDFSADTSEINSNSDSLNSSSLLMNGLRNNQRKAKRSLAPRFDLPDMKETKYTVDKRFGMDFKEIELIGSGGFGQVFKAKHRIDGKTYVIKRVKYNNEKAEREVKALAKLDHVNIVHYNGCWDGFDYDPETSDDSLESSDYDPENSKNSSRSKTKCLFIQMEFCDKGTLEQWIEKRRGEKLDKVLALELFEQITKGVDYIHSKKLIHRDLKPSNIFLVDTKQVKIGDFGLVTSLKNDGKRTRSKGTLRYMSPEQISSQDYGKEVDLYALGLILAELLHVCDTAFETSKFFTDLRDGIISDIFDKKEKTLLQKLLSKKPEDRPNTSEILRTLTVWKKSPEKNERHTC

Cn1cc(-n2cnc3c(NCc4nc5cc(Cl)c(Cl)cc5[nH]4)nc(N4CCOCC4)nc32)cn1
% of control [1]: 2.85% | % of inhibition [2]: -80.6%

Cc1cc(F)c(C(=O)Nc2cccc(-c3nncn3C(C)C)n2)cc1-n1cnc(C2CC2)c1
% of control [3]: 100%

COc1cc(N(C)c2ccnc3ccc(C(F)(F)F)cc23)cc(OC)c1OC
% binding [4]: 72%

C=CC(=O)Nc1cc(-n2c(=O)ccc3cnc4ccc(-c5ccc(NS(C)(=O)=O)cc5)cc4c32)ccc1C
% of control ([5]; at 1 µM): 90% | % of control ([5]; at 10 µM): 85%

CN(C)CCOc1ccc(-c2nc(-c3ccncc3)c(-c3ccc4c(c3)CC/C4=N\O)[nH]2)cc1
% of control [6]: 92%

O[C@H]1CC[C@H](Nc2ncc3nc(Nc4c(F)cc(F)cc4F)n([C@H]4CCOC4)c3n2)CC1
% of control [7]: 4.6%

CNC(=O)Nc1ccc(-c2nc(N3CC4CCC(C3)O4)c3cnn(C4CCC5(CC4)OCCO5)c3n2)cc1
% of control [8]: 100%
